# Measured values: patent US8071581B2, “Triazolopyridazine protein kinase modulators” (SGX Pharmaceuticals, Inc., priority 2006, dated 2011)
# How the values were obtained:
# [1] = target: MET kinase (c-MET), kinase domain of human Met (Homo sapiens, UniProt P08581); assay: MET luminescence-based enzyme assay (Kinase-Glo)
# GTL16 = GTL16 cell assay (EC50); type: cell-based; conditions: Homo sapiens, GTL 16
# Experimental: Compounds were tested in the following assays in duplicate. 96-well XTT assay: Cells were grown in growth media containing various concentrations of compounds (duplicates) on a 96-well flat bottom plate for 72 hours at 37° C. in 5% CO2. The starting cell number was 5000 cells per well and volume was 120 μl. At the end of the 72-hour incubation, 40 μl of XTT labeling mixture (50:1 solution of sodium 3′-[1-(phenylaminocarbonyl)-3,4-tetrazolium]-bis(4-methoxy-6-nitro) benzene sulfonic acid hydrate and Electron-coupling reagent: PMS (N-methyl dibenzopyrazine methyl sulfate) were added to each well of the plate. After an additional 2-6 hours […] with a spectrophotometer.
# Chain of MET kinase (c-MET), kinase domain of human Met (P08581 1078-1345 limits assumed): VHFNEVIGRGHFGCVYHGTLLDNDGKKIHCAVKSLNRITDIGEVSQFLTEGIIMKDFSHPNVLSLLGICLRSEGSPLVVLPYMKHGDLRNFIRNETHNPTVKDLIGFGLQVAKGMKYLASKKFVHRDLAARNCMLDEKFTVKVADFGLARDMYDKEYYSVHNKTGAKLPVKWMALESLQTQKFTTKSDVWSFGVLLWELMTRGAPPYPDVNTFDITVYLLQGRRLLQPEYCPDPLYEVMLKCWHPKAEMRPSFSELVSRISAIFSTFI
Compound,IC50 [1] [nM],EC50 (GTL16; Table 1) [nM],EC50 (GTL16; Table 2) [nM]
O=C(c1ccc(-c2ccc3nnc(Cc4ccc5ncccc5c4)n3n2)cc1)N1CCOCC1 [compound 23],100 to 1000,100 to 1000,
NS(=O)(=O)c1cccc(-c2ccc3nnc(Cc4ccc5ncccc5c4)n3n2)c1 [compound 25],< 100,100 to 1000,
CCn1cc(-c2cnc3ccc(Cc4nnc5ccc(C)nn45)cc3c2)cn1 [compound 162],< 100,,< 100
OCc1ccc(-c2ccc3nnc(Cc4ccc5ncccc5c4)n3n2)cc1 [compound 54],< 100,100 to 1000,
Cc1ccc2nnc(Cc3ccc4ncc(-c5cnn(CCN6CCOCC6)c5)cc4c3)n2n1 [compound 133],< 100,,< 100
N#CCc1cccc(-c2ccc3nnc(Cc4ccc5ncccc5c4)n3n2)c1 [compound 61],< 100,100 to 1000,
Cc1ccc2nnc(Cc3ccc4ncc(-c5cnn(CCN6CCCC6)c5)cc4c3)n2n1 [compound 170],< 100,,< 100
Cc1ccc2nnc(Cc3c(F)cc4ncc(-c5cnn(CCN6CCOCC6)c5)cc4c3F)n2n1 [compound 146],< 100,,< 100
Cc1ccc2nnc(Cc3ccc4ncc(-c5cccc(C#N)c5)cc4c3)n2n1 [compound 130],< 100,,< 100
Cc1cc2ncccc2cc1Cc1nnc2ccc(-c3cccc(C#N)c3)nn12 [compound 85],< 100,< 100,
O=S(=O)(c1ccc(-c2ccc3nnc(Cc4ccc5ncccc5c4)n3n2)cc1)N1CCOCC1 [compound 62],< 100,100 to 1000,
"Cn1cc(-c2cnc3ccc(Cc4nnc5nccnn45)cc3c2)cn1 [compound 179, 3-(1-Methyl-1H-pyrazol-4-yl)-6-[1,2,4]triazolo[4,3-b][1,2,4]triazin-3-ylmethyl-quinoline]",< 100,,< 100
Cc1ccc2nnc(Cc3ccc4ncc(-c5cnn(C6(C(=O)O)CCC6)c5)cc4c3)n2n1 [compound 164],< 100,,1000 to 10000
CN(C)C(=O)c1ccc(-c2ccc3nnc(Cc4ccc5ncccc5c4)n3n2)cc1 [compound 34],100 to 1000,100 to 1000,
CS(=O)(=O)c1cccc(-c2ccc3nnc(Cc4ccc5ncsc5c4)n3n2)c1 [compound 102],< 100,100 to 1000,
C/C=C/c1ccc2nnc(Cc3ccc4ncccc4c3)n2n1 [compound 46],100 to 1000,100 to 1000,
CC(=O)N1CC(Cn2cc(-c3cnc4ccc(Cc5nnc6ccc(C)nn56)cc4c3)cn2)C1 [compound 181],< 100,,100 to 1000
CCN(CC)CCn1cc(-c2cnc3ccc(Cc4nnc5ccc(C)nn45)cc3c2)cn1 [compound 173],< 100,,< 100
CS(=O)(=O)c1ccc(Oc2ccc3nnc(Cc4ccc5ncccc5c4)n3n2)cc1 [compound 12],1000 to 10000,10000 to 50000,
Fc1cccc(-c2ccc3nnc(Cc4ccc5ncccc5c4)n3n2)c1 [compound 31],< 100,< 100,

Compound,IC50 [1] [nM],EC50 (GTL16; Table 1) [nM],EC50 (GTL16; Table 2) [nM]
CNc1ccc(-c2ccc3nnc(Cc4ccc5ncccc5c4)n3n2)cc1 [compound 65],< 100,< 100,
CC(c1ccc2ncsc2c1)c1nnc2ccc(-c3cccc(C#N)c3)nn12 (stereo not shown) [compound 81],< 100,< 100,
O=C(NC1CCCC1)c1cccc(-c2ccc3nnc(Cc4ccc5ncccc5c4)n3n2)c1 [compound 33],100 to 1000,100 to 1000,
Cn1cc(-c2ccc3nnc(Cc4c(F)cc5ncccc5c4F)n3n2)cn1 [compound 87],< 100,< 100,
O=S(=O)(c1ccc(-c2ccc3nnc(Cc4ccc5ncccc5c4)n3n2)cc1)N1CCCC1 [compound 2],100 to 1000,100 to 1000,
Cn1cc(-c2cnc3cc(F)c(Cc4nnc5cccnn45)cc3c2)cn1 [compound 167],< 100,,10000 to 50000
CN(C)S(=O)(=O)c1ccc(-c2ccc3nnc(Cc4ccc5ncccc5c4)n3n2)cc1 [compound 29],100 to 1000,1000 to 10000,
Cn1cc(-c2ccc3nnc(Cc4cc5cccnc5cc4F)n3n2)cn1 [compound 90],< 100,< 100,
CCNC(=O)c1cccc(-c2ccc3nnc(Cc4ccc5ncccc5c4)n3n2)c1 [compound 47],< 100,100 to 1000,
c1ccc(-c2ccc3nnc(Cc4ccc5ncsc5c4)n3n2)cc1 [compound 43],100 to 1000,100 to 1000,
Oc1ccc(Cc2nnc3ccc(-c4ccccc4)nn23)cc1 [compound 14],100 to 1000,1000 to 10000,
"Cc1ccc2nnc(Cc3ccc4ncc(-c5cnc[nH]5)cc4c3)n2n1 [compound 142, 3-(1H-Imidazol-4-yl)-6-(6-methyl-[1,2,4]triazolo[4,3-b]pyridazin-3-ylmethyl)-quinoline]",100 to 1000,,100 to 1000
Cn1cc(-c2cnc3cc(F)c(Cc4nnc5cccnn45)c(F)c3c2)cn1 [compound 174],< 100,,100 to 1000
"Cc1ccc2nnc(Cc3ccc4ncc(-n5ccnc5)cc4c3)n2n1 [compound 132, 3-Imidazol-1-yl-6-(6-methyl-[1,2,4]triazolo[4,3-b]pyridazin-3-ylmethyl)-quinoline]",100 to 1000,,100 to 1000
NCc1ccc(-c2ccc3nnc(Cc4ccc5ncccc5c4)n3n2)cc1 [compound 32],< 100,< 100,
"COc1ccc2nnc(Cc3ccc4ncc(-c5cnn(C)c5)cc4c3)n2n1 [compound 140, 6-(6-Methoxy-[1,2,4]triazolo[4,3-b]pyridazin-3-ylmethyl)-3-(1-methyl-1H-pyrazol-4-yl)-quinoline]",< 100,,< 100
CNC(=O)c1ccc(-c2ccc3nnc(Cc4c(F)cc5ncccc5c4F)n3n2)cc1F [compound 89],< 100,< 100,
Cc1ccc(-c2ccc3nnc(Cc4ccc5ncccc5c4)n3n2)cc1 [compound 36],< 100,< 100,
c1cnc2ccc(Cc3nnc4ccc(N5CCCCC5)nn34)cc2c1 [compound 112],100 to 1000,100 to 1000,
"c1ccc(-c2ccc3nnc(Cc4ccc5nc[nH]c5c4)n3n2)cc1 [compound 45, 3-(3H-Benzoimidazol-5-ylmethyl)-6-phenyl-[1,2,4]triazolo[4,3-b]pyridazine]",100 to 1000,100 to 1000,

Compound,IC50 [1] [nM],EC50 (GTL16; Table 1) [nM],EC50 (GTL16; Table 2) [nM]
Fc1ccccc1-c1ccc2nnc(Cc3ccc4ncccc4c3)n2n1 [compound 53],100 to 1000,100 to 1000,
Cc1ccc2nnc(Cc3ccc4ncc(-c5cnn(CCN(C)C)c5)cc4c3)n2n1 [compound 168],< 100,,< 100
Cc1cc(F)cc(-c2ccc3nnc(Cc4ccc5ncccc5c4)n3n2)c1 [compound 76],< 100,< 100,
Cc1ccc2nnc(Cc3ccc4ncc(-c5cnn(C6CCNCC6)c5)cc4c3)n2n1 [compound 126],< 100,,< 100
NC(=O)c1ccc(Oc2ccc3nnc(Cc4ccc5ncccc5c4)n3n2)cc1 [compound 11],1000 to 10000,10000 to 50000,
CN(C)S(=O)(=O)c1cccc(-c2ccc3nnc(Cc4ccc5ncccc5c4)n3n2)c1 [compound 64],< 100,< 100,
"CCN1CC(n2cc(-c3cnc4ccc(Cc5nnc6ccc(C)nn56)cc4c3)cn2)C1 [compound 171, 3-[1-(1-Ethyl-azetidin-3-yl)-1H-pyrazol-4-yl]-6-(6-methyl-[1,2,4]triazolo[4,3-b]pyridazin-3-ylmethyl)-quinoline]",< 100,,< 100
N#Cc1cc(-c2ccc3nnc(Cc4ccc5ncccc5c4)n3n2)ccc1F [compound 69],100 to 1000,1000 to 10000,
c1ccc(-c2ccc3nnc(Cc4ccc5ncccc5c4)n3n2)cc1 [compound 16],100 to 1000,100 to 1000,
CNC(=O)c1cc(F)cc(-c2ccc3nnc(Cc4ccc5ncccc5c4)n3n2)c1 [compound 56],100 to 1000,100 to 1000,
CCN1CC(Cn2cc(-c3cnc4ccc(Cc5nnc6ccc(C)nn56)cc4c3)cn2)C1 [compound 180],< 100,,< 100
O=S(=O)(NC1CC1)c1ccc(-c2ccc3nnc(Cc4ccc5ncccc5c4)n3n2)cc1 [compound 1],< 100,100 to 1000,
"Cc1ccc2nnc(Cc3c[nH]c4ncc(-c5cnn(C)c5)cc34)n2n1 [compound 177, 6-Methyl-3-[5-(1-methyl-1H-pyrazol-4-yl)-1H-pyrrolo[2,3-b]pyridine-3-ylmethyl]-[1,2,4]triazolo[4,3-b]pyridazine]",< 100,,100 to 1000
N#Cc1cccc(-c2ccc3nnc(Cc4ccc5ncsc5c4)n3n2)c1 [compound 98],100 to 1000,100 to 1000,
CN(C)c1cccc(-c2ccc3nnc(Cc4ccc5ncccc5c4)n3n2)c1 [compound 67],100 to 1000,100 to 1000,
CNC(=O)c1ccc(-c2ccc3nnc(Cc4ccc5ncccc5c4)n3n2)cc1 [compound 66],< 100,100 to 1000,
NC(=O)c1ccc(-c2ccc3nnc(Cc4ccc5ncccc5c4)n3n2)cc1 [compound 24],< 100,< 100,
"CC(=O)N1CC(n2cc(-c3cnc4ccc(Cc5nnc6ccc(C)nn56)cc4c3)cn2)C1 [compound 175, 1-(3-{4-[6-(6-Methyl-[1,2,4]triazolo[4,3-b]pyridazin-3-ylmethyl)-quinolin-3-yl]-pyrazol-1-yl}-azetidin-1-yl)-ethanone]",< 100,,100 to 1000
O=C(NCC(F)(F)F)c1ccc(-c2ccc3nnc(Cc4ccc5ncccc5c4)n3n2)cc1 [compound 72],< 100,100 to 1000,
